Patent US12630600B2 (MEDIMMUNE LIMITED, priority 2022, dated 2026)
Starred links: 1 amine or outer side, 2 acyl side, 3 side chain; linkers in the order of their positions; H or OH if unused. Non-standard residues stand in square brackets, D forms with d. Residues, ends and D or L forms follow the SMILES beside them. Groups on a side chain read outwards from the residue. *: point of attachment. C20 diacid = O=C(O)CCCCCCCCCCCCCCCCCCC(=O)*; C18 diacid = O=C(O)CCCCCCCCCCCCCCCCC(=O)*; Dip = N[C@H](C(=O)O)C(c1ccccc1)c1ccccc1; γGlu = O=C(O)[C@H](CCC(=O)[*:2])N[*:1]; Stearoyl = CCCCCCCCCCCCCCCCCC(=O)*; Palmitoyl = CCCCCCCCCCCCCCCC(=O)*; αMeF = C[C@](N)(Cc1ccccc1)C(=O)O; PEG4 = NCCOCCOCCOCCOCCC(=O)O; PEG2 = NCCOCCOCCC(=O)O; AEEA = NCCOCCOCC(=O)O; Aib = CC(C)(N)C(=O)O

Legend:
[1] = tested on: wildtype (WT) mice; test: Glucose change in wildtype mice; format: in vivo, mouse; conditions: s.c.
Procedure: […] and wildtype (WT) mice at 8-14 weeks of age were singly housed on standard chow diet (Envigo, 2918) and automatic water. They acclimated for a minimum of ˜1-2 weeks, and mice were sorted into groups (n=4-8/group) based on body weight. On day of study, mice were fasted briefly for 2 hrs prior to study start. In some studies, mice were pre-treated with octreotide (BaChem, 10 mg/kg) at 30 minutes prior to peptide injection. Glucose was measured via glucometer at various timepoints including −30 min (prior to octreotide when used in studies), 0 min (before peptide dose), 30, 60, 120, 180, 240, and 360 minutes. Since these studies are acute in nature, mice were re-used for multiple studies (no more than 3) and always allowed at least a minimum wash-out period of 1 week.

[2] = biological target: T1, human GLP-1 receptor (hGLP-1R) (Homo sapiens, UniProt P43220); test: cAMP production (HTRF) in CHO cells expressing human GLP-1 receptor; format: cell-based
T1 construct: expressed in transfected cells; host or cells: CHO

[3] = biological target: T2, human glucagon receptor (hGCGR) (Homo sapiens, UniProt P47871); test: cAMP production (HTRF) in CHO cells expressing human glucagon receptor; format: cell-based; conditions: Table 7, modification at position 20, CHO cells expressing hGCGR, geometric mean, read-out: hGluc-R EC50
T2 construct: expressed in transfected cells; host or cells: CHO

[4] = biological target: T3, neprilysin (Homo sapiens, UniProt P08473); test: Proteolytic resistance to neprilysin; format: in vitro ADME; conditions: pH 8.3
T3 construct: purchased R&D Systems 1182-ZNC-010
Procedure: 10.0 μg (˜10 units) recombinant Neprilysin (R&D Systems: 1182-ZNC-010) was reconstituted to 100 μL (100 μg/mL, ˜100 units/mL) in assay buffer (50 mM Tris, 50 mM NaCl, 50 mM NaHCO3, adjusted to pH 8.3) to give the enzyme stock solution. Peptide stock solutions were prepared to a concentration of ˜250 μM (˜1.0 mg/mL of 4 kDa peptide) in assay buffer. 100 μL (10 μg, ˜10 units) of neprilysin stock solution was added to 100 μL of peptide stock solution (1.0 mg/mL, ˜100 μg of peptide) and the mixture was co-incubated in a temperature regulated incubator at 37° C. for the duration of the experiment. 25 μL aliquots (˜12.5 μg initial peptide) of the peptide-enzyme mixture were periodically withdrawn (t=0, 30 mins, 1 h, 2 h, 4 h and 24 h) and quenched immediately by addition to an equal volume ([…]) of 10% TFA (v/v) in 1:1 water/acetonitrile to arrest proteolytic activity. The quenched aliquot centrifuged at 7800 rpm, and 30 μL of the supernatant was analyzed by analytical RP-HPLC as follows: Analytical RP-HPLC method: Agilent Polaris C8-A column (4.6×100 mm, 3 micron) eluted with a linear binary gradient of 10-90% MeCN (0.1% TFA v/v) in water (0.1% TFA v/v) over either 10 or 15 mins at 1.5 mL min^−1 at 40° C. with detection by UV absorption at 210 nm. Manual integration (AUC) allowed estimation of remaining intact peptide over the time course of the experiment.

[5] = 10 nmol/kg, somatostatin pretreatment 30 min prior to cpd

T3 sequence (P08473 whole entry): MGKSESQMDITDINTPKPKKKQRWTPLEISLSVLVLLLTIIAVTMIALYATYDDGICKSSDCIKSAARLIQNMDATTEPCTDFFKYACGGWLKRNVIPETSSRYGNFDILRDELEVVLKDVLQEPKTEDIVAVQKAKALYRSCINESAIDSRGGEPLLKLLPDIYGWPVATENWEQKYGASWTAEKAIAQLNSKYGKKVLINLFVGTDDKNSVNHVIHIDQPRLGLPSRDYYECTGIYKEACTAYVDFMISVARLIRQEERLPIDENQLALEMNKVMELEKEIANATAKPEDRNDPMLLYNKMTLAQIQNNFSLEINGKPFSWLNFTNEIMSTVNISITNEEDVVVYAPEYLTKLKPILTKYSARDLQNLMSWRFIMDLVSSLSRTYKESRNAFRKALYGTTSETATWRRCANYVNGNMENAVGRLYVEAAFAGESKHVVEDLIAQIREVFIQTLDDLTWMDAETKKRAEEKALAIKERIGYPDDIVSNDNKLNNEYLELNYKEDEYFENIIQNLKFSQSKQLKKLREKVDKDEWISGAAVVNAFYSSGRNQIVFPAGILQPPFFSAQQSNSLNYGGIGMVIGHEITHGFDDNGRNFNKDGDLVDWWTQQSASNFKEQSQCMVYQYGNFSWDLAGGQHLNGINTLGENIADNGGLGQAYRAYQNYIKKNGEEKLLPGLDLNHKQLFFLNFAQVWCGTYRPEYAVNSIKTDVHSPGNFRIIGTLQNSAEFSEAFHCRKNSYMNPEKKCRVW
T1 sequence (P43220 24-463): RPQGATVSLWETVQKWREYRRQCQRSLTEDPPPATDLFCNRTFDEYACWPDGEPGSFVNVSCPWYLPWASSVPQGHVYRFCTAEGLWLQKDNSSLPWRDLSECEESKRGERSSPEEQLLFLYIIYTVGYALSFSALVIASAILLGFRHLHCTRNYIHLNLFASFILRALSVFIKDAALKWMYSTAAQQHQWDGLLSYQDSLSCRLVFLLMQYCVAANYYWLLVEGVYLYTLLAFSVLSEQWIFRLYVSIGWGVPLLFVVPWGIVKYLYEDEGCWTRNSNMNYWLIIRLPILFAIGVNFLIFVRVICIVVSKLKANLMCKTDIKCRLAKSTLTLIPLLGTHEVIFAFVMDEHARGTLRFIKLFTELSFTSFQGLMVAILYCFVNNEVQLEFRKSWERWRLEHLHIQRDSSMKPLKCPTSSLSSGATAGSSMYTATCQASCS
T2 sequence (P47871 26-477): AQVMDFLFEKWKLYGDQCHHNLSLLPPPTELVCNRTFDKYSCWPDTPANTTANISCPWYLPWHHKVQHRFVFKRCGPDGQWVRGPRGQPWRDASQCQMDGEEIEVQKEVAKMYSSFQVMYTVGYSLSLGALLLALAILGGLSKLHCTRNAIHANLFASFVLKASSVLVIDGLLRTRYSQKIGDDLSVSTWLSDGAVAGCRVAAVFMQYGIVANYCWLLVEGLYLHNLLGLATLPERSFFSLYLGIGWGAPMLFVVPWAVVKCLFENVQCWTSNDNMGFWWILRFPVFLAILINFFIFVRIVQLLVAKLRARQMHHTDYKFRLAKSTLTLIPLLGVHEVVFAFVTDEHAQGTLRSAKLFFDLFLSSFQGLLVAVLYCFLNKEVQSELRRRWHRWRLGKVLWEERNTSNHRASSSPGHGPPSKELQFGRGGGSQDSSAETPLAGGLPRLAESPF

## CCCCCCCCCCCCCCCCCC(=O)N[C@@H](CCC(=O)N[C@@H](CCC(=O)NCCOCCOCCC(=O)NCCOCCOCCC(=O)NCCCC[C@H](NC(=O)[C@H](CO)NC(=O)[C@H](CC(=O)O)NC(=O)[C@H](CC(C)C)NC(=O)[C@@H](NC(=O)[C@H](CCCCN)NC(=O)[C@H](CO)NC(=O)[C@@H](NC(=O)[C@H](CC(=O)O)NC(=O)[C@H](CO)NC(=O)[C@@H](NC(=O)[C@](C)(Cc1ccccc1)NC(=O)[C@H](CO)NC(=O)CNC(=O)[C@H](CCC(N)=O)NC(=O)[C@H](CO)NC(=O)[C@@H](N)Cc1c[nH]cn1)[C@@H](C)O)C(C)C)C(c1ccccc1)c1ccccc1)C(=O)N[C@@H](C)C(=O)N[C@@H](C)C(=O)N[C@@H](CCC(N)=O)C(=O)N[C@@H](CC(=O)O)C(=O)N[C@@](C)(Cc1ccccc1)C(=O)N[C@H](C(=O)N[C@@H](CCC(=O)O)C(=O)NC(C)(C)C(=O)N[C@H](C(=O)N[C@@H](C)C(=O)N[C@@H](CC(N)=O)C(=O)N[C@H](C(N)=O)[C@@H](C)O)[C@@H](C)CC)C(C)C)C(=O)O)C(=O)O [Peptide 49] (H-HSQGS[αMeF]TSDVSK[Dip]LDSK([PEG2-PEG2-γGlu-γGlu-Stearoyl])AAQD[αMeF]VE[Aib]IANT-NH2; N-terminus assumed)
[1]; [5]
  WT % glucose change 120 min: −1.2%

## CC(C)C[C@H](NC(=O)[C@H](Cc1c[nH]c2ccccc12)NC(=O)[C@H](CCCNC(=N)N)NC(=O)[C@@H](NC(=O)[C@H](Cc1ccccc1)NC(=O)[C@H](CC(=O)O)NC(=O)[C@H](CCC(N)=O)NC(=O)[C@H](C)NC(=O)[C@H](CCCNC(=N)N)NC(=O)[C@H](CCCCNC(=O)COCCOCCNC(=O)COCCOCCNC(=O)CC[C@H](NC(=O)CCCCCCCCCCCCCCCCC(=O)O)C(=O)O)NC(=O)[C@@H](NC(=O)[C@H](CC(=O)O)NC(=O)[C@H](CC(C)C)NC(=O)[C@](C)(Cc1ccccc1)NC(=O)[C@H](CCCCN)NC(=O)[C@H](CO)NC(=O)[C@@H](NC(=O)[C@H](CC(=O)O)NC(=O)[C@H](CO)NC(=O)[C@@H](NC(=O)[C@H](Cc1ccccc1)NC(=O)[C@@H](NC(=O)CNC(=O)[C@H](CCC(N)=O)NC(=O)C(C)(C)NC(=O)[C@@H](N)Cc1c[nH]cn1)[C@@H](C)O)[C@@H](C)O)C(C)C)[C@@H](C)O)C(C)C)C(=O)N[C@@H](CC(C)C)C(=O)N[C@@H](CCC(=O)O)C(=O)NC(C)(C)C(=O)NCC(=O)O [Peptide 140] (H-H[Aib]QGTFTSDVSK[αMeF]LDTK([AEEA-AEEA-γGlu-C18 diacid])RAQDFVRWLLE[Aib]G-OH; N-terminus assumed)
[1]; 30 nmol/kg, no somatostatin pretreatment
  WT % glucose change 60 min: −29.0%

## CC[C@H](C)[C@H](NC(=O)C(C)(C)NC(=O)[C@H](CCC(N)=O)NC(=O)[C@@H](NC(=O)[C@](C)(Cc1ccccc1)NC(=O)[C@H](CC(=O)O)NC(=O)[C@H](CCCCNC(=O)COCCOCCNC(=O)COCCOCCNC(=O)CC[C@H](NC(=O)CCCCCCCCCCCCCCCCC(=O)O)C(=O)O)NC(=O)[C@H](C)NC(=O)[C@H](C)NC(=O)[C@H](CCCNC(=N)N)NC(=O)[C@H](CO)NC(=O)[C@H](CC(=O)O)NC(=O)[C@H](CC(C)C)NC(=O)[C@](C)(Cc1ccccc1)NC(=O)[C@H](CCCCN)NC(=O)[C@H](CO)NC(=O)[C@@H](NC(=O)[C@H](CC(=O)O)NC(=O)[C@H](CO)NC(=O)[C@@H](NC(=O)[C@](C)(Cc1ccccc1)NC(=O)[C@H](CO)NC(=O)CNC(=O)[C@H](Cc1c[nH]cn1)NC(=O)C(C)(C)NC(=O)[C@@H](N)Cc1c[nH]cn1)[C@@H](C)O)C(C)C)C(C)C)C(=O)N[C@@H](C)C(=O)N[C@@H](CC(N)=O)C(=O)N[C@H](C(N)=O)[C@@H](C)O [Peptide 224, H-Aib-H-G-S-αMePhe-T-S-D-V-S-K-αMePhe-L-D-S-R-A-A-K(ε-(O2Oc)-(O2Oc)-γE-C18diacid)20-D-αMePhe-V-Q-Aib-I-A-N-T-amide] (H-H[Aib]HGS[αMeF]TSDVSK[αMeF]LDSRAAK([AEEA-AEEA-γGlu-C18 diacid])D[αMeF]VQ[Aib]IANT-NH2)
[1]; [5]
  WT % glucose change 120 min: −40.0%

## CC[C@H](C)[C@H](NC(=O)[C@H](Cc1c[nH]c2ccccc12)NC(=O)[C@H](CCC(N)=O)NC(=O)[C@@H](NC(=O)[C@H](Cc1ccccc1)NC(=O)[C@H](CC(=O)O)NC(=O)[C@H](CCCCNC(=O)COCCOCCNC(=O)COCCOCCNC(=O)CC[C@H](NC(=O)CC[C@H](NC(=O)CCCCCCCCCCCCCCCCCCC(=O)O)C(=O)O)C(=O)O)NC(=O)[C@H](C)NC(=O)[C@H](C)NC(=O)[C@H](CCCNC(=N)N)NC(=O)[C@H](CO)NC(=O)[C@H](CC(=O)O)NC(=O)[C@H](CC(C)C)NC(=O)[C@](C)(Cc1ccccc1)NC(=O)[C@H](CCCCN)NC(=O)[C@H](CO)NC(=O)[C@@H](NC(=O)[C@H](CC(=O)O)NC(=O)[C@H](CO)NC(=O)[C@@H](NC(=O)[C@H](Cc1ccccc1)NC(=O)[C@H](CO)NC(=O)CNC(=O)[C@H](Cc1c[nH]cn1)NC(=O)C(C)(C)NC(=O)[C@@H](N)Cc1c[nH]cn1)[C@@H](C)O)C(C)C)C(C)C)C(=O)N[C@@H](C)C(=O)N[C@@H](CC(N)=O)C(=O)N[C@H](C(N)=O)[C@@H](C)O [Peptide 290] (H-H[Aib]HGSFTSDVSK[αMeF]LDSRAAK([AEEA-AEEA-γGlu-γGlu-C20 diacid])DFVQWIANT-NH2; N-terminus assumed)
[2]; Table 7, modification at position 20, CHO cells expressing hGLP-1R, cAMP, geometric mean, read-out: hGLP-1R EC50
  EC50: 0.347 nM
[2]; Table 7, % GLP-1R activity relative to GLP-1 / % GlucR activity relative to glucagon
  % Relative Potency Ratio: 1.5
[3]
  EC50: 0.26 nM
[4]; isolated enzyme neprilysin
  remaining at 4 h, 125 µM: 89%
  remaining at 24 h, 125 µM: 82%
[4]
  % intact peptide over time, Neprilysin: 100%

## CC[C@H](C)[C@H](NC(=O)C(C)(C)NC(=O)[C@H](CCC(N)=O)NC(=O)[C@@H](NC(=O)[C@](C)(Cc1ccccc1)NC(=O)[C@H](CC(=O)O)NC(=O)[C@H](CCCCNC(=O)COCCOCCNC(=O)COCCOCCNC(=O)CC[C@H](NC(=O)CC[C@H](NC(=O)CCCCCCCCCCCCCCCCCCC(=O)O)C(=O)O)C(=O)O)NC(=O)[C@H](C)NC(=O)[C@H](C)NC(=O)[C@H](CCCNC(=N)N)NC(=O)[C@H](CO)NC(=O)[C@H](CC(=O)O)NC(=O)[C@H](CC(C)C)NC(=O)[C@H](Cc1ccc(O)cc1)NC(=O)[C@H](CCCCN)NC(=O)[C@H](CO)NC(=O)[C@@H](NC(=O)[C@H](CC(=O)O)NC(=O)[C@H](CO)NC(=O)[C@@H](NC(=O)[C@](C)(Cc1ccccc1)NC(=O)[C@H](CO)NC(=O)CNC(=O)[C@H](Cc1c[nH]cn1)NC(=O)C(C)(C)NC(=O)[C@@H](N)Cc1c[nH]cn1)[C@@H](C)O)C(C)C)C(C)C)C(=O)N[C@@H](C)C(=O)N[C@@H](CC(N)=O)C(=O)N[C@H](C(N)=O)[C@@H](C)O [Peptide 283] (H-H[Aib]HGS[αMeF]TSDVSKYLDSRAAK([AEEA-AEEA-γGlu-γGlu-C20 diacid])D[αMeF]VQ[Aib]IANT-NH2)
[4]
  % intact peptide over time, Neprilysin: 100%

## CCCCCCCCCCCCCCCC(=O)N[C@@H](CCC(=O)N[C@@H](CCC(=O)NCCOCCOCCOCCOCCC(=O)NCCCC[C@H](NC(=O)[C@H](CO)NC(=O)[C@H](CC(=O)O)NC(=O)[C@H](CC(C)C)NC(=O)[C@@H](NC(=O)[C@H](CCCCN)NC(=O)[C@H](CO)NC(=O)[C@@H](NC(=O)[C@H](CC(=O)O)NC(=O)[C@H](CO)NC(=O)[C@@H](NC(=O)[C@](C)(Cc1ccccc1)NC(=O)[C@H](CO)NC(=O)CNC(=O)[C@H](CCC(N)=O)NC(=O)C(C)(C)NC(=O)[C@@H](N)Cc1c[nH]cn1)[C@@H](C)O)C(C)C)C(c1ccccc1)c1ccccc1)C(=O)N[C@@H](CCCNC(=N)N)C(=O)N[C@@H](C)C(=O)N[C@@H](CCC(N)=O)C(=O)N[C@@H](CC(=O)O)C(=O)N[C@@](C)(Cc1ccccc1)C(=O)N[C@H](C(=O)N[C@@H](CCC(=O)O)C(=O)NC(C)(C)C(=O)N[C@@H](CC(C)C)C(=O)N[C@@H](CCC(=O)O)C(=O)N[C@@H](C)C(=O)NCC(=O)NCC(N)=O)C(C)C)C(=O)O)C(=O)O [Peptide 43] (H-H[Aib]QGS[αMeF]TSDVSK[Dip]LDSK([PEG4-γGlu-γGlu-Palmitoyl])RAQD[αMeF]VE[Aib]LEAGG-NH2; N-terminus assumed)
[1]; 3 nmol/kg, no somatostatin pretreatment
  WT % glucose change 120 min: −56.0%
